# According to ChEMBL document CHEMBL1201862, “PubChem BioAssay data set” (2004):
#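 48-hour exposure; five concentrations; linearly interpolated endpoints. GI50 marks 50% less growth.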 Activity calls are given as the source filed them. Cut-off read from the data, not from the text of the source: active = GI50 up to about 1.1 µM and inactive = higher.
# How the values were obtained:
# Assay in all cases: NCI anticancer screen, dose series, 48 h
# MDA-MB-231 = tested on: MDA-MB-231
# RXF 393 = tested on: RXF 393
# ACHN = tested on: ACHN
# KM12 = tested on: KM12
# COLO 205 = tested on: COLO 205
# NCI/ADR-RES = tested on: NCI/ADR-RES
# SK-MEL-28 = tested on: SK-MEL-28
# OVCAR-5 = tested on: OVCAR-5
# SF-268 = tested on: SF-268
# SR = tested on: SR
# 786-0 = tested on: 786-0
# NCI-H226 = tested on: NCI-H226
# LOX IMVI = tested on: LOX IMVI
# U-251 = tested on: U-251
# A498 = tested on: A498
# MDA-N = tested on: MDA-N
# DU-145 = tested on: DU-145
# MDA-MB-435 = tested on: MDA-MB-435
# MCF7 = tested on: MCF7
# SK-MEL-5 = tested on: SK-MEL-5
SMILES,GI50 (MDA-MB-231),GI50 (RXF 393),GI50 (ACHN),GI50 (KM12),GI50 (COLO 205),GI50 (NCI/ADR-RES),GI50 (SK-MEL-28),GI50 (OVCAR-5),GI50 (SF-268),GI50 (SR),GI50 (786-0),GI50 (NCI-H226),GI50 (LOX IMVI),GI50 (U-251),GI50 (A498),GI50 (MDA-N),GI50 (DU-145),GI50 (MDA-MB-435),GI50 (MCF7),GI50 (SK-MEL-5)
COc1cc2c3c(c1OC)C1(C=CC(=O)C=C1)CC3NCC2 (stereo not given),> 100 µM (inactive),89.7 µM (inactive),> 100 µM (inactive),80 µM (inactive),> 100 µM (inactive),> 100 µM (inactive),> 100 µM (inactive),> 100 µM (inactive),> 100 µM (inactive),> 100 µM (inactive),44 µM (inactive),> 100 µM (inactive),> 100 µM (inactive),> 100 µM (inactive),> 100 µM (inactive),> 100 µM (inactive),> 100 µM (inactive),> 100 µM (inactive),> 100 µM (inactive),> 100 µM (inactive)
S=C1NC(c2ccccc2)NC(c2ccccc2)S1 (stereo not given),> 100 µM (inactive),> 100 µM (inactive),> 100 µM (inactive),> 100 µM (inactive),> 100 µM (inactive),> 100 µM (inactive),> 100 µM (inactive),> 100 µM (inactive),> 100 µM (inactive),> 100 µM (inactive),> 100 µM (inactive),> 100 µM (inactive),78.9 µM (inactive),39.4 µM (inactive),> 100 µM (inactive),> 100 µM (inactive),> 100 µM (inactive),> 100 µM (inactive),28.2 µM (inactive),> 100 µM (inactive)
COCCOC(=O)C(C)=[N+]=[N-],> 100 µM (inactive),> 100 µM (inactive),> 100 µM (inactive),> 100 µM (inactive),> 100 µM (inactive),> 100 µM (inactive),> 100 µM (inactive),> 100 µM (inactive),> 100 µM (inactive),68.1 µM (inactive),> 100 µM (inactive),> 100 µM (inactive),> 100 µM (inactive),> 100 µM (inactive),> 100 µM (inactive),> 100 µM (inactive),> 100 µM (inactive),> 100 µM (inactive),> 100 µM (inactive),> 100 µM (inactive)
CC1NC(=O)c2c(-c3ccccc3)nn(-c3ccccc3)c2NC1=O (stereo not given),> 100 µM (inactive),> 100 µM (inactive),> 100 µM (inactive),> 100 µM (inactive),> 100 µM (inactive),> 100 µM (inactive),> 100 µM (inactive),> 100 µM (inactive),> 100 µM (inactive),> 100 µM (inactive),> 100 µM (inactive),> 100 µM (inactive),> 100 µM (inactive),> 100 µM (inactive),> 100 µM (inactive),> 100 µM (inactive),> 100 µM (inactive),> 100 µM (inactive),> 100 µM (inactive),> 100 µM (inactive)
C1=C\SS/C=C\SS/1,6.53 µM (inactive),32.2 µM (inactive),27.9 µM (inactive),36 µM (inactive),39.3 µM (inactive),46 µM (inactive),> 100 µM (inactive),35.3 µM (inactive),40.5 µM (inactive),> 100 µM (inactive),17 µM (inactive),> 100 µM (inactive),29 µM (inactive),34.8 µM (inactive),> 100 µM (inactive),40.3 µM (inactive),> 100 µM (inactive),57.5 µM (inactive),15.9 µM (inactive),24.5 µM (inactive)
Cc1ccc(NC(=S)N/N=C(/c2ccccc2)c2ccccn2)cc1,< 0.01 µM (active),0.621 µM (active),< 0.0371 µM (active),0.1 µM (active),< 0.0166 µM (active),0.0302 µM (active),0.224 µM (active),0.0233 µM (active),< 0.0233 µM (active),< 0.01 µM (active),0.0284 µM (active),0.124 µM (active),0.0346 µM (active),0.0265 µM (active),0.815 µM (active),0.708 µM (active),0.938 µM (active),0.4 µM (active),0.0164 µM (active),0.0933 µM (active)
COc1ccc(/C=N/c2ccc(-c3nc4ccccc4[nH]3)cc2)cc1OC,68.4 µM (inactive),97.9 µM (inactive),> 100 µM (inactive),> 100 µM (inactive),> 100 µM (inactive),> 100 µM (inactive),> 100 µM (inactive),> 100 µM (inactive),80 µM (inactive),81.7 µM (inactive),> 100 µM (inactive),> 100 µM (inactive),> 100 µM (inactive),42.5 µM (inactive),> 100 µM (inactive),> 100 µM (inactive),> 100 µM (inactive),> 100 µM (inactive),25.9 µM (inactive),> 100 µM (inactive)
C1=C(c2ccccc2)C(N2CCOCC2)Oc2ccccc21 (stereo not given),> 100 µM (inactive),> 100 µM (inactive),> 100 µM (inactive),> 100 µM (inactive),> 100 µM (inactive),79.8 µM (inactive),> 100 µM (inactive),> 100 µM (inactive),> 100 µM (inactive),> 100 µM (inactive),> 100 µM (inactive),> 100 µM (inactive),> 100 µM (inactive),> 100 µM (inactive),25.5 µM (inactive),92.5 µM (inactive),> 100 µM (inactive),> 100 µM (inactive),> 100 µM (inactive),> 100 µM (inactive)
CC1=C(C#N)C23C(=O)c4ccccc4C(=O)C2=C(O)C=CC3(O)N1 (stereo not given),8.83 µM (inactive),3.8 µM (inactive),1.53 µM (inactive),9.08 µM (inactive),2.03 µM (inactive),7.83 µM (inactive),2.51 µM (inactive),4.76 µM (inactive),6.61 µM (inactive),0.269 µM (active),2.2 µM (inactive),15.7 µM (inactive),0.512 µM (active),8.39 µM (inactive),21 µM (inactive),1.53 µM (inactive),2.98 µM (inactive),2.81 µM (inactive),0.597 µM (active),1.06 µM (active)
COc1ccc(/C=C/C(=O)c2ccccc2)cc1OC,19.5 µM (inactive),14.3 µM (inactive),15.5 µM (inactive),3.13 µM (inactive),15.9 µM (inactive),21.2 µM (inactive),21.1 µM (inactive),16.9 µM (inactive),14.5 µM (inactive),3.15 µM (inactive),4.97 µM (inactive),19.8 µM (inactive),5.46 µM (inactive),9.59 µM (inactive),16.4 µM (inactive),4.13 µM (inactive),11.4 µM (inactive),4.59 µM (inactive),2.52 µM (inactive),16.8 µM (inactive)
